Experimental data reported in patent US12655116B2, “Substituted isophthalic acid diamides” (Bayer Aktiengesellschaft, priority 2020, dated 2026).

What was measured:
ABUTH [1] = test: Pre-emergence herbicidal action against ABUTH; format: in vivo, Abutilon theophrasti; settings: for Pre-emergence action against ABUTH (herbicidal activity in percent): dosage 20 g/ha, scored visually after 3 weeks vs untreated controls, 100% = plants have died, 0% = like control plants
Summary of the method: (§1)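 Herbicidal effect was assessed 3 weeks after treatment by visual comparison with untreated controls, 100% denoting dead plants. Aqueous WP or EC preparations had been applied at 600 to 800 l/ha with 0.2% wetting agent to the soil covering freshly sown seeds.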

ALOMY [2] = test: Pre-emergence herbicidal action against ALOMY; format: in vivo, Alopecurus myosuroides; settings: 80 g/ha, pre-emergence, scored visually after 3 weeks vs untreated controls (100% = plants have died, 0% = like control plants)
Summary of the method: as §1

AMARE [3] = test: Pre-emergence herbicidal action against AMARE; format: in vivo, Amaranthus retroflexus
Summary of the method: as §1

MATIN [4] = test: Pre-emergence herbicidal action against MATIN; format: in vivo, Matricaria inodora
Summary of the method: as §1

POLCO = test: Pre-emergence herbicidal action against POLCO; format: in vivo, Polygonum convolvulus
Excerpt: Seeds of monocotyledonous and dicotyledonous weed plants and crop plants are laid out in sandy loam soil in wood-fiber pots and covered with soil. The compounds of the invention, formulated in the form of wettable powders (WP) or as emulsion concentrates (EC), are then applied to the surface of the covering soil in the form of an aqueous suspension or emulsion at a water application rate equivalent to 600 to 800 l/ha, with addition of 0.2% wetting agent. After the treatment, the pots are placed in a greenhouse and kept under good growth conditions for the trial plants. The damage to the test plants is scored visually after a test period of 3 weeks by comparison with untreated controls (herbicidal activity in percent (%): 100% activity=the plants have died, 0% activity=like control plants). […] The tables below illustrate, in an illustrative manner, the post-emergence herbicidal action of the compounds of the invention, the herbicidal activity being stated in percent.

SETVI [5] = test: Pre-emergence herbicidal action against SETVI; format: in vivo, Setaria viridis; settings: dosage 80 g/ha
Summary of the method: as §1

ABUTH [6] = test: Post-emergence herbicidal action against ABUTH; format: in vivo, Abutilon theophrasti; settings: visual assessment about 3 weeks after treatment vs untreated controls
Summary of the method: (§2)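 Herbicidal effect was scored visually in percent after about 3 weeks in the greenhouse. Plants had been raised in sandy loam and treated post-emergence at the one-leaf stage with formulated compound at 600 to 800 l/ha water plus 0.2% wetting agent.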

ALOMY [7] = test: Post-emergence herbicidal action against ALOMY; format: in vivo, Alopecurus myosuroides; settings: Alopecurus myosuroides, 504 h, dosage 20 g/ha, visual assessment about 3 weeks after treatment vs untreated controls
Summary of the method: as §2

AMARE [8] = test: Post-emergence herbicidal action against AMARE; format: in vivo, Amaranthus retroflexus; settings: 20 g/ha, visual assessment about 3 weeks after treatment, 100% = plants have died, 0% = like control plants
Summary of the method: as §2

SETVI [9] = test: Post-emergence herbicidal action against SETVI; format: in vivo, Setaria viridis; settings: dosage 20 g/ha
Summary of the method: as §2

VERPE [10] = test: Post-emergence herbicidal action against VERPE; format: in vivo, Veronica persica; settings: 20 g/ha
Summary of the method: as §2

VIOTR [11] = test: Post-emergence herbicidal action against VIOTR; format: in vivo, Viola tricolor; settings: 20 g/ha
Summary of the method: as §2

ECHCG [12] = test: Pre-emergence herbicidal action against ECHCG; format: in vivo, Echinochloa crus-galli; settings: 80 g/ha
Summary of the method: as §1

VERPE [13] = test: Pre-emergence herbicidal action against VERPE; format: in vivo, Veronica persica; settings: dosage 80 g/ha
Summary of the method: as §1

VIOTR [14] = test: Pre-emergence herbicidal action against VIOTR; format: in vivo, Viola tricolor
Summary of the method: as §1

DIGSA = test: Pre-emergence herbicidal action against DIGSA; format: in vivo, Digitaria sanguinalis
Summary of the method: as §1

ECHCG [15] = test: Post-emergence herbicidal action against ECHCG; format: in vivo, Echinochloa crus-galli
Summary of the method: as §2

MATIN [16] = test: Post-emergence herbicidal action against MATIN; format: in vivo, Matricaria inodora; settings: dosage 20 g/ha
Summary of the method: as §2

PHBPU = test: Post-emergence herbicidal action against PHBPU; format: in vivo, Pharbitis purpurea; settings: dosage 20 g/ha
Summary of the method: as §2

AVEFA = test: Pre-emergence herbicidal action against AVEFA; format: in vivo, Avena fatua; settings: 80 g/ha, pre-emergence
Summary of the method: as §1

[17] = 80 g/ha, scored visually after 3 weeks vs untreated controls (100% = plants have died, 0% = like control plants)
[18] = 20 g/ha, scored visually after 3 weeks vs untreated controls, 100% = plants have died, 0% = like control plants

Row | Structure (SMILES) | Pre-emergence action against ABUTH (herbicidal activity) (ABUTH [1]; [17]) | Pre-emergence action against ABUTH (herbicidal activity in percent) (ABUTH [1]) | Pre-emergence action against ALOMY (herbicidal activity) (ALOMY [2]) | Pre-emergence action against AMARE in % (AMARE [3]; [18]) | Pre-emergence action against AMARE in % (AMARE [3]; [17]) | Pre-emergence action against ECHCG in % (ECHCG [12]) | Pre-emergence action against MATIN in % (MATIN [4]; dosage 80 g/ha) | Pre-emergence action against POLCO in % (POLCO; dosage 80 g/ha) | Pre-emergence action against SETVI in % (SETVI [5]) | Pre-emergence action against VERPE in % (VERPE [13]) | Pre-emergence action against VIOTR in % (VIOTR [14]; dosage 80 g/ha) | Post-emergence action against ABUTH in % (ABUTH [6]; dosage 5 g/ha) | Post-emergence action against ABUTH in % (ABUTH [6]; dosage 20 g/ha) | Post-emergence action against ECHCG in % (ECHCG [15]; dosage 20 g/ha) | also measured
1 | CNC(=O)c1c(OC)ccc(C(=O)Nc2nnnn2C)c1Cl [Example 1-354] | – | – | – | – | – | – | – | – | – | – | – | – | – | – | pest or weed control at 80 g/ha (ABUTH [1]; Abutilon theophrasti, 504 h, 80 g/ha, scored visually after 3 weeks vs untreated controls (100% = plants have died, 0% = like control plants)): 100%; pest or weed control at 80 g/ha (ALOMY [2]; Alopecurus myosuroides, 504 h): 80%; pest or weed control at 80 g/ha (AMARE [3]; Amaranthus retroflexus, 504 h, 80 g/ha, scored visually after 3 weeks vs untreated controls, 100% = plants have died, 0% = like control plants): 100%; pest or weed control at 20 g/ha (MATIN [4]; Tripleurospermum inodorum, 504 h, dosage 20 g/ha): 80%; pest or weed control at 80 g/ha (MATIN [4]; Tripleurospermum inodorum, 504 h, dosage 80 g/ha): 80%; pest or weed control at 80 g/ha (POLCO; Fallopia convolvulus, 504 h, dosage 80 g/ha): 80%; pest or weed control at 80 g/ha (SETVI [5]; Setaria viridis, 504 h): 90%; pest or weed control at 5 g/ha (ABUTH [6]; Abutilon theophrasti, 504 h, dosage 5 g/ha): 90%; pest or weed control at 20 g/ha (ABUTH [6]; Abutilon theophrasti, 504 h, dosage 20 g/ha): 100%; pest or weed control at 20 g/ha (ALOMY [7]): 80%; pest or weed control at 20 g/ha (AMARE [8]; Amaranthus retroflexus, 504 h): 100%; pest or weed control at 20 g/ha (SETVI [9]; Setaria viridis, 504 h): 100%; pest or weed control at 20 g/ha (VERPE [10]; Veronica persica, 504 h): 90%; pest or weed control at 20 g/ha (VIOTR [11]; Viola tricolor, 504 h): 90%
2 | CCn1nnnc1NC(=O)c1ccc(C(F)F)c(C(=O)NC)c1OC [Example 2-72] | 100% | 100% | 80% | 100% | 100% | 100% | 100% | 80% | 100% | 90% | 100% | 80% | 80% | 80% | Pre-emergence action against MATIN in % (MATIN [4]; dosage 20 g/ha): 100%; Pre-emergence action against POLCO in % (POLCO; dosage 20 g/ha): 80%; Pre-emergence action against VIOTR in % (VIOTR [14]; dosage 20 g/ha): 100%; Pre-emergence action against DIGSA in % (DIGSA; dosage 20 g/ha): 100%; Pre-emergence action against DIGSA in % (DIGSA; dosage 80 g/ha): 100%; Post-emergence action against ECHCG in % (ECHCG [15]; dosage 5 g/ha): 80%; Post-emergence action against MATIN in % (MATIN [16]): 80%; Post-emergence action against PHBPU in % (PHBPU): 80%; Post-emergence action against SETVI in % (SETVI [9]): 80%; Post-emergence action against VERPE in % (VERPE [10]): 80%; Post-emergence action against VIOTR in % (VIOTR [11]): 80%
3 | CCNC(=O)c1c(C(F)(F)F)ccc(C(=O)Nc2nnc(C)o2)c1CC [Example 6-211] | 100% | 90% | 90% | 100% | 100% | 100% | 90% | 90% | 100% | 80% | 80% | 80% | 90% | 90% | Pre-emergence action against AVEFA in % (AVEFA): 80%; Post-emergence action at 20 g/ha against AMARE in % (AMARE [8]): 90%
